What follows are compounds tested on SH-SY5Y M-currents (KCNQ2, KCNQ3 and KCNQ5) (assay: SH-SY5Y native cell line FLIPR assay (voltage-sensitive dye DiBAC)). Conditions: FLIPR assay, SH-SY5Y native cell line; Table 2; read-out: SH-SY5Y EC50.
Format: cell-based, mouse neuroblastoma, rat glioma hybrid cell line
Procedure, shortened: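 Response is peak DiBAC fluorescence change, normalised to the maximum from a positive control agent, sampled every 30 s over 25 min. Before compound addition, SH-SY5Y cells differentiated with PGE1 plus isomethylbutylxanthine were dye-loaded for 1 h in EBSS with […] DiBAC.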

**Q.** How did the EC50 turn out when `O=C(Cc1ccc(C(F)(F)F)cc1)Nc1nc2ccc(F)cn2c1-c1ccc(OC(F)(F)F)c(F)c1` [Compound 297, N-(6-fluoro-3-(3-fluoro-4-(trifluoromethoxy)phenyl)imidazo[1,2-a]pyridin-2-yl)-2-(4-(trifluoromethyl)phenyl)acetamide] was run?
**A.** < 500 nM

**Q.** With `O=C(Cc1cccc(Cl)c1)Nc1nc2ccc(F)cn2c1-c1ccc(OC(F)(F)F)c(F)c1` [Compound 298, 2-(3-chlorophenyl)-N-(6-fluoro-3-(3-fluoro-4-(trifluoromethoxy)phenyl)imidazo[1,2-a]pyridin-2-yl)acetamide] as the compound, how does the EC50 read?
**A.** < 500 nM

**Q.** With `O=C(Cc1ccc(C(F)(F)F)cc1)Nc1nc2ccc(F)cn2c1-c1cccc(Cl)c1` [Compound 299, N-(3-(3-chlorophenyl)-6-fluoroimidazo[1,2-a]pyridin-2-yl)-2-(4-(trifluoromethyl)phenyl)acetamide] as the compound, how does the EC50 read?
**A.** 500 to 3000 nM

**Q.** With `O=C(Cc1cccc(Cl)c1)Nc1nc2ccc(F)cn2c1-c1cccc(Cl)c1` [Compound 300, 2-(3-chlorophenyl)-N-(3-(3-chlorophenyl)-6-fluoroimidazo[1,2-a]pyridin-2-yl)acetamide] as the compound, how does the EC50 read?
**A.** < 500 nM

**Q.** For `O=C(Cc1ccc(Cl)cc1)Nc1nc2ccc(F)cn2c1-c1cccc(Cl)c1` [Compound 301, 2-(4-chlorophenyl)-N-(3-(3-chlorophenyl)-6-fluoroimidazo[1,2-a]pyridin-2-yl)acetamide], which EC50 is on record?
**A.** < 500 nM

**Q.** How did the EC50 turn out when `O=C(CC1CCCC1)Nc1nc2ccc(F)cn2c1-c1cccc(Cl)c1` [Compound 302, N-(3-(3-chlorophenyl)-6-fluoroimidazo[1,2-a]pyridin-2-yl)-2-cyclopentylacetamide] was run?
**A.** < 500 nM

**Q.** How did the EC50 turn out when `O=C(CCC(F)(F)F)Nc1nc2ccc(F)cn2c1-c1ccc(OC(F)(F)F)c(F)c1` [Compound 303, 4,4,4-trifluoro-N-(6-fluoro-3-(3-fluoro-4-(trifluoromethoxy)phenyl)imidazo[1,2-a]pyridin-2-yl)butanamide] was run?
**A.** 500 to 3000 nM

**Q.** For `CC1(CC(=O)Nc2nc3ccc(F)cn3c2-c2ccc(OC(F)(F)F)c(F)c2)CCCC1` [Compound 304, N-(6-fluoro-3-(3-fluoro-4-(trifluoromethoxy)phenyl)imidazo[1,2-a]pyridin-2-yl)-2-(1-methylcyclopentyl)acetamide], which EC50 is on record?
**A.** < 500 nM

**Q.** Which EC50 does the source give for `Cc1ccc2nc(NC(=O)CC(C)(C)C)c(-c3cccc(OC(F)(F)F)c3)n2n1` [Compound 305, 3,3-dimethyl-N-(6-methyl-3-(3-(trifluoromethoxy)phenyl)imidazo[1,2-b]pyridazin-2-yl)butanamide] here?
**A.** < 500 nM

**Q.** Which EC50 does the source give for `Cc1ccc2nc(NC(=O)Cc3ccc(F)cc3)c(-c3cccc(OC(F)(F)F)c3)n2n1` [Compound 306, 2-(4-fluorophenyl)-N-(6-methyl-3-(3-(trifluoromethoxy)phenyl)imidazo[1,2-b]pyridazin-2-yl)acetamide] here?
**A.** < 500 nM

**Q.** How did the EC50 turn out when `COc1ccn2c(-c3ccc(C(F)(F)F)cc3)c(NC(=O)CC(F)(F)F)nc2c1` [Compound 307, 3,3,3-trifluoro-N-(7-methoxy-3-(4-(trifluoromethyl)phenyl)imidazo[1,2-a]pyridin-2-yl)propanamide] was run?
**A.** 3000 to 10000 nM

**Q.** With `Cc1ccc2nc(NC(=O)Cc3ccc(F)cc3)c(-c3cccc(C(F)(F)F)c3)n2n1` [Compound 309, 2-(4-fluorophenyl)-N-(6-methyl-3-(3-(trifluoromethyl)phenyl)imidazo[1,2-b]pyridazin-2-yl)acetamide] as the compound, how does the EC50 read?
**A.** < 500 nM

**Q.** `O=C(Cc1ccc(Cl)cc1)Nc1nc2ccc(F)cn2c1-c1ccc(OC(F)(F)F)c(F)c1` [Compound 310, 2-(4-chlorophenyl)-N-(6-fluoro-3-(3-fluoro-4-(trifluoromethoxy)phenyl)imidazo[1,2-a]pyridin-2-yl)acetamide] was tested. Which EC50 did it give?
**A.** < 500 nM

**Q.** How did the EC50 turn out when `O=C(CC1CCCC1)Nc1nc2ccc(F)cn2c1-c1ccc(OC(F)(F)F)c(F)c1` [Compound 311, 2-cyclopentyl-N-(6-fluoro-3-(3-fluoro-4-(trifluoromethoxy)phenyl)imidazo[1,2-a]pyridin-2-yl)acetamide] was run?
**A.** < 500 nM

**Q.** Which EC50 does the source give for `CC(C)C(C)C(=O)Nc1nc2ccc(F)cn2c1-c1ccc(OC(F)(F)F)c(F)c1` (stereo not shown) [Compound 312, N-(6-fluoro-3-(3-fluoro-4-(trifluoromethoxy)phenyl)imidazo[1,2-a]pyridin-2-yl)-2,3-dimethylbutanamide] here?
**A.** < 500 nM

**Q.** For `CC(CC(=O)Nc1nc2ccc(F)cn2c1-c1ccc(OC(F)(F)F)c(F)c1)C(F)(F)F` (stereo not shown) [Compound 313, 4,4,4-trifluoro-N-(6-fluoro-3-(3-fluoro-4-(trifluoromethoxy)phenyl)imidazo[1,2-a]pyridin-2-yl)-3-methyl butanamide], which EC50 is on record?
**A.** < 500 nM

**Q.** `CC(C)C(C)C(=O)Nc1nc2ccc(F)cn2c1-c1cccc(Cl)c1` (stereo not shown) [Compound 314, N-(3-(3-chlorophenyl)-6-fluoroimidazo[1,2-a]pyridin-2-yl)-2,3-dimethylbutanamide] was tested. Which EC50 did it give?
**A.** < 500 nM

**Q.** For `CC(CC(=O)Nc1nc2ccc(F)cn2c1-c1cccc(Cl)c1)C(F)(F)F` (stereo not shown) [Compound 315, N-(3-(3-chlorophenyl)-6-fluoroimidazo[1,2-a]pyridin-2-yl)-4,4,4-trifluoro-3-methylbutanamide], which EC50 is on record?
**A.** 500 to 3000 nM

**Q.** For `O=C(Cc1ccc(F)cc1)Nc1nc2ncc(Cl)cn2c1-c1ccc(C(F)(F)F)cc1` [Compound 317, N-(6-chloro-3-(4-(trifluoromethyl)phenyl)imidazo[1,2-a]pyrimidin-2-yl)-2-(4-fluorophenyl)acetamide], which EC50 is on record?
**A.** 500 to 3000 nM

**Q.** Which EC50 does the source give for `CC(CC(=O)Nc1nc2ncc(Cl)cn2c1-c1ccc(C(F)(F)F)cc1)C(F)(F)F` (stereo not shown) [Compound 318, N-(6-chloro-3-(4-(trifluoromethyl)phenyl)imidazo[1,2-a]pyrimidin-2-yl)-4,4,4-trifluoro-3-methylbutanamide] here?
**A.** 500 to 3000 nM

**Q.** Which EC50 does the source give for `CC(C)(C)CC(=O)Nc1nc2ncc(Cl)cn2c1-c1cccc(Cl)c1` [Compound 319, N-(6-chloro-3-(3-chlorophenyl)imidazo[1,2-a]pyrimidin-2-yl)-3,3-dimethylbutanamide] here?
**A.** 3000 to 10000 nM

**Q.** For `O=C(Cc1ccc(F)cc1)Nc1nc2ncc(Cl)cn2c1-c1cccc(Cl)c1` [Compound 320, N-(6-chloro-3-(3-chlorophenyl)imidazo[1,2-a]pyrimidin-2-yl)-2-(4-fluorophenyl) acetamide], which EC50 is on record?
**A.** 3000 to 10000 nM

**Q.** Which EC50 does the source give for `CC(CC(=O)Nc1nc2ncc(Cl)cn2c1-c1cccc(Cl)c1)C(F)(F)F` (stereo not shown) [Compound 321, N-(6-chloro-3-(3-chlorophenyl)imidazo[1,2-a]pyrimidin-2-yl)-4,4,4-trifluoro-3-methylbutanamide] here?
**A.** 3000 to 10000 nM

**Q.** How did the EC50 turn out when `CC(C)(C)CC(=O)Nc1nc2ncc(Cl)cn2c1-c1ccc(C(F)(F)F)cc1` [Compound 322, N-(6-chloro-3-(4-(trifluoromethyl)phenyl)imidazo[1,2-a]pyrimidin-2-yl)-3,3-dimethylbutanamide] was run?
**A.** 3000 to 10000 nM

**Q.** How did the EC50 turn out when `CC(C)(C)CC(=O)Nc1nc2ncccn2c1-c1cccc(OC(F)(F)F)c1` [Compound 323, 3,3-dimethyl-N-(3-(3-(trifluoromethoxy)phenyl)imidazo[1,2-a]pyrimidin-2-yl)butanamide] was run?
**A.** 3000 to 10000 nM

**Q.** For `O=C(Cc1ccc(F)cc1)Nc1nc2ncccn2c1-c1cccc(OC(F)(F)F)c1` [Compound 324, 2-(4-fluorophenyl)-N-(3-(3-(trifluoromethoxy)phenyl)imidazo[1,2-a]pyrimidin-2-yl)acetamide], which EC50 is on record?
**A.** 3000 to 10000 nM

**Q.** Which EC50 does the source give for `CC(CC(=O)Nc1nc2ncccn2c1-c1cccc(OC(F)(F)F)c1)C(F)(F)F` (stereo not shown) [Compound 325, 4,4,4-trifluoro-3-methyl-N-(3-(3-(trifluoromethoxy)phenyl)imidazo[1,2-a]pyrimidin-2-yl)butanamide] here?
**A.** 3000 to 10000 nM

**Q.** For `O=C(Nc1nc2ccc(F)cn2c1-c1ccc(OC(F)(F)F)cc1)C1CCC(F)(F)CC1` [Compound 326, 4,4-difluoro-N-(6-fluoro-3-(4-(trifluoromethoxy)phenyl)imidazo[1,2-a]pyridin-2-yl)cyclohexanecarboxamide], which EC50 is on record?
**A.** < 500 nM

**Q.** For `O=C(Nc1nc2ccc(F)cn2c1-c1cccc(OC(F)(F)F)c1)C1CCC(F)(F)CC1` [Compound 327, 4,4-difluoro-N-(6-fluoro-3-(3-(trifluoromethoxy)phenyl)imidazo[1,2-a]pyridin-2-yl)cyclohexanecarboxamide], which EC50 is on record?
**A.** < 500 nM

**Q.** With `O=C(Nc1nc2ccc(F)cn2c1-c1cccc(C(F)(F)F)c1)C1CCC(F)(F)CC1` [Compound 328, 4,4-difluoro-N-(6-fluoro-3-(3-(trifluoromethyl)phenyl)imidazo[1,2-a]pyridin-2-yl)cyclohexanecarboxamide] as the compound, how does the EC50 read?
**A.** < 500 nM

**Q.** Which EC50 does the source give for `CC(C)(C)CC(=O)Nc1nc2ncccn2c1-c1cccc(Cl)c1` [Compound 329, N-(3-(3-chlorophenyl)imidazo[1,2-a]pyrimidin-2-yl)-3,3-dimethylbutanamide] here?
**A.** 3000 to 10000 nM

**Q.** With `O=C(Cc1ccc(F)cc1)Nc1nc2ncccn2c1-c1cccc(Cl)c1` [Compound 330, N-(3-(3-chlorophenyl)imidazo[1,2-a]pyrimidin-2-yl)-2-(4-fluorophenyl)acetamide] as the compound, how does the EC50 read?
**A.** 3000 to 10000 nM

**Q.** Which EC50 does the source give for `CC(CC(=O)Nc1nc2ncccn2c1-c1cccc(Cl)c1)C(F)(F)F` (stereo not shown) [Compound 331, N-(3-(3-chlorophenyl)imidazo[1,2-a]pyrimidin-2-yl)-4,4,4-trifluoro-3-methylbutanamide] here?
**A.** 3000 to 10000 nM

**Q.** `CC(C)(C)CC(=O)Nc1nc2ncc(F)cn2c1-c1cccc(C(F)(F)F)c1` [Compound 332, N-(6-fluoro-3-(3-(trifluoromethyl)phenyl)imidazo[1,2-a]pyrimidin-2-yl)-3,3-dimethylbutanamide] was tested. Which EC50 did it give?
**A.** 3000 to 10000 nM

**Q.** Which EC50 does the source give for `CC(C)(C)CC(=O)Nc1nc2ncc(F)cn2c1-c1cccc(OC(F)(F)F)c1` [Compound 333, N-(6-fluoro-3-(3-(trifluoromethoxy)phenyl)imidazo[1,2-a]pyrimidin-2-yl)-3,3-dimethylbutanamide] here?
**A.** 500 to 3000 nM

**Q.** Which EC50 does the source give for `O=C(Nc1nc2ccc(F)cn2c1-c1ccc(OC(F)(F)F)c(F)c1)C1CCC1` [Compound 334, N-(6-fluoro-3-(3-fluoro-4-(trifluoromethoxy)phenyl)imidazo[1,2-a]pyridin-2-yl)cyclobutanecarboxamide] here?
**A.** 500 to 3000 nM

**Q.** Which EC50 does the source give for `O=C(Nc1nc2ccc(F)cn2c1-c1cccc(Cl)c1)C1CCC1` [Compound 335, N-(3-(3-chlorophenyl)-6-fluoroimidazo[1,2-a]pyridin-2-yl)cyclobutanecarboxamide] here?
**A.** 500 to 3000 nM

From patent US9018208B2, “Heterocycles as potassium channel modulators” (Icagen Inc., priority 2007, dated 2015)
